{"source": "ChEMBL document CHEMBL3259629", "about": "“Discovery and optimization of piperidyl-1,2,3-triazole ureas as potent, selective, and in vivo-active inhibitors of α/β-hydrolase domain containing 6 (ABHD6)” (J Med Chem, 2013)", "details_in_all_cases": "Neuro2a, 3 nM", "key": {"[1]": {"target": "1-acylglycerol-3-phosphate O-acyltransferase ABHD5 (Mus musculus) (UniProt Q9DBL9)", "sequence (Q9DBL9 whole entry, looked up)": "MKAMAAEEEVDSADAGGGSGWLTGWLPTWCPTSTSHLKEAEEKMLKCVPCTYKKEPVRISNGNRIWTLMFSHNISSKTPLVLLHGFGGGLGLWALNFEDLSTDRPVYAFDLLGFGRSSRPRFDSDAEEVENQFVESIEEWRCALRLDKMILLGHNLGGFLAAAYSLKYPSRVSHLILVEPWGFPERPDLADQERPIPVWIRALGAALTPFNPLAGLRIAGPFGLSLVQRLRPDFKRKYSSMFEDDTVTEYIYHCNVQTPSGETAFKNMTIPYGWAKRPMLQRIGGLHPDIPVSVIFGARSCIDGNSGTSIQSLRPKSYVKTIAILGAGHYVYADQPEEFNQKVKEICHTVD", "description": "Inhibition of Abhd5 in mouse Neuro2a cells at 3 nM after 4 hrs by ABPP-SILAC assay"}, "[2]": {"target": "T1, Platelet-activating factor acetylhydrolase IB subunit alpha2 (Mus musculus) (UniProt Q61206)", "T1 sequence (whole entry)": "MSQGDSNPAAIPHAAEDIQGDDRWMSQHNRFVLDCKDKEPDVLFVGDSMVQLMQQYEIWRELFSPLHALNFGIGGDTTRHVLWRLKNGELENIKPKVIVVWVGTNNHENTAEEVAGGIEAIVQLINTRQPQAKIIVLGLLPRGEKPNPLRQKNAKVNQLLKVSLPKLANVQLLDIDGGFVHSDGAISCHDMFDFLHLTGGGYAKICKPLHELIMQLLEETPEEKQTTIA", "description": "Inhibition of Pafah1b2 in mouse Neuro2a cells at 3 nM after 4 hrs by ABPP-SILAC assay"}, "[3]": {"target": "T2, Fatty-acid amide hydrolase 1 (Mus musculus) (UniProt O08914)", "T2 sequence (whole entry)": "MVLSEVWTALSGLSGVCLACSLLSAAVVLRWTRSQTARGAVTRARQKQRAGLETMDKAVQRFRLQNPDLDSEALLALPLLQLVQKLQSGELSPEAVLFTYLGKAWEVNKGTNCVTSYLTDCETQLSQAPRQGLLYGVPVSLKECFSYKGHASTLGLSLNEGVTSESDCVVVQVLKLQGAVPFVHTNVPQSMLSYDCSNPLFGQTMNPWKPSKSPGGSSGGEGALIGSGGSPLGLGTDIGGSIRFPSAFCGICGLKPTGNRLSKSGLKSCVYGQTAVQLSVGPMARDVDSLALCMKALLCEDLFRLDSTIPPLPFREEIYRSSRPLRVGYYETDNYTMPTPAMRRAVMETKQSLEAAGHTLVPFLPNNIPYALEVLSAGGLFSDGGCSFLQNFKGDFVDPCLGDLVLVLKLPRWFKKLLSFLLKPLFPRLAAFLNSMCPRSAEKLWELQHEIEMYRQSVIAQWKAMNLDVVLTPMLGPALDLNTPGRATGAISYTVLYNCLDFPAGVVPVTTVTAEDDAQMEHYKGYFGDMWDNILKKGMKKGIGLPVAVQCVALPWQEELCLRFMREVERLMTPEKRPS", "description": "Inhibition of Faah in mouse Neuro2a cells at 3 nM after 4 hrs by ABPP-SILAC assay"}, "[4]": {"target": "Patatin-like phospholipase domain-containing protein 7 (Mus musculus) (UniProt A2AJ88)", "sequence (A2AJ88 whole entry, the tested form may be a part)": "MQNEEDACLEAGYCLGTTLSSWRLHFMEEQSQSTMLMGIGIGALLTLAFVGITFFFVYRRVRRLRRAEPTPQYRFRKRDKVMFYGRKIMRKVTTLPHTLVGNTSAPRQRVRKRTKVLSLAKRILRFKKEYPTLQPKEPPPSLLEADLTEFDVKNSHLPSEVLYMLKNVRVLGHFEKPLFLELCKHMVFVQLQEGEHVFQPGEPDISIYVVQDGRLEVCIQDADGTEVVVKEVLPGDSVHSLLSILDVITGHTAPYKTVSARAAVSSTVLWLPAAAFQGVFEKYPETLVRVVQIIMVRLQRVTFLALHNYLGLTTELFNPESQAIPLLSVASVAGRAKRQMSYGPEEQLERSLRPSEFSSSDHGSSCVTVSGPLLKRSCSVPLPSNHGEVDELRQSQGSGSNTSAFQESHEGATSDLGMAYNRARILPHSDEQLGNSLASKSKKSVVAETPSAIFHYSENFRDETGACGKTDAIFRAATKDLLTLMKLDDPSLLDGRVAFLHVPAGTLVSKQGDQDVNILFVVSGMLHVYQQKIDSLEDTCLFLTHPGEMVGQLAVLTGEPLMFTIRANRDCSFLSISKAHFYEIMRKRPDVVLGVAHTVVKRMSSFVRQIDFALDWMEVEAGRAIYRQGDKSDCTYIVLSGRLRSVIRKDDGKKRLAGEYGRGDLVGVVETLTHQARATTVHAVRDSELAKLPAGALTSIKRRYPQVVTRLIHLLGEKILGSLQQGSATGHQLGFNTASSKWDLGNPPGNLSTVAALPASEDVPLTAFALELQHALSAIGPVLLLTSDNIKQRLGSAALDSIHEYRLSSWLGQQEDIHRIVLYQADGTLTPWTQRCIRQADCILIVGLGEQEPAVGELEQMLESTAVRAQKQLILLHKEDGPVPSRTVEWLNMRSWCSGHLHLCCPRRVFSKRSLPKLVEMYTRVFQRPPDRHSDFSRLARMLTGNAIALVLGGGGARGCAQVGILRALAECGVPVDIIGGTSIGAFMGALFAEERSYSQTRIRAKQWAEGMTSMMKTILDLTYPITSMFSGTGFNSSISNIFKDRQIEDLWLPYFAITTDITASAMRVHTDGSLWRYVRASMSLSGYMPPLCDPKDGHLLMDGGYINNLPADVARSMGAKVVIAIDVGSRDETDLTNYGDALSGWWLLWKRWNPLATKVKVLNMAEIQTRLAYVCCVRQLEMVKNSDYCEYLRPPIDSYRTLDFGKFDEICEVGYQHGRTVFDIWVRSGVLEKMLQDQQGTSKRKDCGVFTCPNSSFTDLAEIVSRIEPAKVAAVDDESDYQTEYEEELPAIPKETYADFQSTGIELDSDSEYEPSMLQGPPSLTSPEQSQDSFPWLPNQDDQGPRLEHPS", "description": "Inhibition of Pnpla7 in mouse Neuro2a cells at 3 nM after 4 hrs by ABPP-SILAC assay"}, "[5]": {"target": "T3, Phosphatidylserine lipase ABHD16A (Mus musculus) (UniProt Q9Z1Q2)", "T3 sequence (whole entry)": "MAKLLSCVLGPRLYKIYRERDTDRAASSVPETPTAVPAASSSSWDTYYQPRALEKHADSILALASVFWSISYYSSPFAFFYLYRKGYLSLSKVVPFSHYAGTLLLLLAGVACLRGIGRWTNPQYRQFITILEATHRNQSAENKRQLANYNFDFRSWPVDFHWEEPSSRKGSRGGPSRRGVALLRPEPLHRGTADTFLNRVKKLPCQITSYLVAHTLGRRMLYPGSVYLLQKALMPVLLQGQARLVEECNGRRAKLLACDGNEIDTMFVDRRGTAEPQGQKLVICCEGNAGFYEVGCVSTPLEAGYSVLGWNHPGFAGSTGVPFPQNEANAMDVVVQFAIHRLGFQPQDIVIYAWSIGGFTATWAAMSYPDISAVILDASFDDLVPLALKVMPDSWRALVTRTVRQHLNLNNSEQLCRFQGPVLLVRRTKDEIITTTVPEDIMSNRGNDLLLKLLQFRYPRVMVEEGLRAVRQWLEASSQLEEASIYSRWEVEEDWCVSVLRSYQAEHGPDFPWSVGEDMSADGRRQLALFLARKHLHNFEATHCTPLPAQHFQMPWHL", "description": "Inhibition of Bat5 in mouse Neuro2a cells at 3 nM after 4 hrs by ABPP-SILAC assay"}, "[6]": {"target": "Serine hydrolase RBBP9 (Mus musculus) (UniProt O88851)", "sequence (O88851 whole entry)": "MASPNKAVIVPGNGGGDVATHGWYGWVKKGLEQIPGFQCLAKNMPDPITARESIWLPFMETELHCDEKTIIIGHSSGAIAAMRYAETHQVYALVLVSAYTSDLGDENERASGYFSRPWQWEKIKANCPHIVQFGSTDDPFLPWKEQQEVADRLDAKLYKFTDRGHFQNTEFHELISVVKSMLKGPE", "description": "Inhibition of Rbbp9 in mouse Neuro2a cells at 3 nM after 4 hrs by ABPP-SILAC assay"}, "[7]": {"target": "T4, Monoacylglycerol lipase ABHD6 (Mus musculus) (UniProt Q8R2Y0)", "T4 sequence (whole entry)": "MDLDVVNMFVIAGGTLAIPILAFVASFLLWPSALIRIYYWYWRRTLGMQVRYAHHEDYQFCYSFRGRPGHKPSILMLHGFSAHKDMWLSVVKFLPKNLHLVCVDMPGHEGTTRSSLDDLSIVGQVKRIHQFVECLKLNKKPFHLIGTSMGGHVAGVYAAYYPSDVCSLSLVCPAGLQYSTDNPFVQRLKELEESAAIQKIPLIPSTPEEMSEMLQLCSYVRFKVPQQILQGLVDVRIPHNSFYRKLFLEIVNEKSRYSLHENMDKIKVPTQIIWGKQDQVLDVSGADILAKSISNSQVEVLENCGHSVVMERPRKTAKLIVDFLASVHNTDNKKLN", "description": "Inhibition of Abhd6 in mouse Neuro2a cells at 3 nM after 4 hrs by ABPP-SILAC assay"}, "[8]": {"target": "T5, Hormone-sensitive lipase (Mus musculus) (UniProt P54310)", "T5 sequence (whole entry)": "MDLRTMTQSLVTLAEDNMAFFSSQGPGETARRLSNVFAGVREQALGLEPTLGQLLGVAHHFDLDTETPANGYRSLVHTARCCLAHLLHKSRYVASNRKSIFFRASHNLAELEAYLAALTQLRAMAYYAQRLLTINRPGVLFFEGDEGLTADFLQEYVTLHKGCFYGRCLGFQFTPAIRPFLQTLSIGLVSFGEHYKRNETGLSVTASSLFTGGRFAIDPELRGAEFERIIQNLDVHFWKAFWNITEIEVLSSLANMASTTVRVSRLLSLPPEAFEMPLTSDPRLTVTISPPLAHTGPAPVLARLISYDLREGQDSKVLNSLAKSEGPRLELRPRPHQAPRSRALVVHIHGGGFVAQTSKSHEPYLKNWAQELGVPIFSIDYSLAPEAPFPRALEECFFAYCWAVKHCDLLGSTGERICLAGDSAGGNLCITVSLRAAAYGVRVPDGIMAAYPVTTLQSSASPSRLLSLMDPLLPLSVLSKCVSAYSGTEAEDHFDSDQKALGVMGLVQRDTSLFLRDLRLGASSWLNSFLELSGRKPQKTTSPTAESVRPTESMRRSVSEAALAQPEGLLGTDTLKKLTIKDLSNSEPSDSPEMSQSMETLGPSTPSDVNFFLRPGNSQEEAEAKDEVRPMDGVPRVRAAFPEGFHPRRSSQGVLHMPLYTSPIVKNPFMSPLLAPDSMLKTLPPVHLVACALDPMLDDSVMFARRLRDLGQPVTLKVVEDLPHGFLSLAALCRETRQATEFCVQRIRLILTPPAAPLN", "description": "Inhibition of Lipe in mouse Neuro2a cells at 3 nM after 4 hrs by ABPP-SILAC assay"}}}
{"smiles": "O=C(N1CCCCC1c1ccccc1)n1cc(-c2ccc(-c3cccc(CO)c3)cc2)nn1", "note": "(racemic)", "values": [{"measurement": "inhibition", "setting": "[1]", "value": "< 50", "unit": "%"}, {"measurement": "inhibition", "setting": "[2]", "value": "< 50", "unit": "%"}, {"measurement": "inhibition", "setting": "[3]", "value": "< 50", "unit": "%"}, {"measurement": "inhibition", "setting": "[4]", "value": "< 50", "unit": "%"}, {"measurement": "inhibition", "setting": "[5]", "value": "< 50", "unit": "%"}, {"measurement": "inhibition", "setting": "[6]", "value": "< 50", "unit": "%"}, {"measurement": "inhibition", "setting": "[7]", "value": "> 90", "unit": "%"}, {"measurement": "inhibition", "setting": "[8]", "value": "< 50", "unit": "%"}]}
{"smiles": "O=C(O)c1cccc(-c2ccc(-c3cn(C(=O)N4CCCCC4Cc4ccccc4)nn3)cc2)c1", "note": "(racemic)", "values": [{"measurement": "inhibition", "setting": "[1]", "value": "< 50", "unit": "%"}, {"measurement": "inhibition", "setting": "[2]", "value": "< 50", "unit": "%"}, {"measurement": "inhibition", "setting": "[3]", "value": "< 50", "unit": "%"}, {"measurement": "inhibition", "setting": "[4]", "value": "< 50", "unit": "%"}, {"measurement": "inhibition", "setting": "[5]", "value": "< 50", "unit": "%"}, {"measurement": "inhibition", "setting": "[6]", "value": "< 50", "unit": "%"}, {"measurement": "inhibition", "setting": "[7]", "value": "> 90", "unit": "%"}, {"measurement": "inhibition", "setting": "[8]", "value": "< 50", "unit": "%"}]}
{"smiles": "O=C(c1cccc(-c2ccc(-c3cn(C(=O)N4CCCCC4c4ccccc4)nn3)cc2)c1)N1CCCCC1", "note": "(racemic)", "values": [{"measurement": "inhibition", "setting": "[1]", "value": "< 50", "unit": "%"}, {"measurement": "inhibition", "setting": "[2]", "value": "< 50", "unit": "%"}, {"measurement": "inhibition", "setting": "[3]", "value": "< 50", "unit": "%"}, {"measurement": "inhibition", "setting": "[4]", "value": "< 50", "unit": "%"}, {"measurement": "inhibition", "setting": "[5]", "value": "< 50", "unit": "%"}, {"measurement": "inhibition", "setting": "[6]", "value": "< 50", "unit": "%"}, {"measurement": "inhibition", "setting": "[7]", "value": "> 80", "unit": "%"}, {"measurement": "inhibition", "setting": "[8]", "value": "< 50", "unit": "%"}]}
